Measured values published in article PMC5563285 (Protein & Cell, 2017).
Positions of bridges follow the written chain, without caps; N, C: chain ends. Residues, ends and D or L forms follow the SMILES beside them.

How the values were obtained:
[1] = molecular target: Aplysia californica acetylcholine binding protein (Ac-AChBP) (Aplysia californica); experiment: SPR
[2] = molecular target: T1, Ac-AChBP (acetylcholine binding protein) (Aplysia californica, UniProt Q8WSF8); experiment: biochemical
T1 construct: The cDNA encoding the full-length Ac-AChBP was cloned into the pFastBac-Dual vector; 6xHis (C); made in house; host or cells: High Five insect cells (baculovirus, Bac-to-Bac; virus made in Sf9)
T1 sequence (Q8WSF8 20-236): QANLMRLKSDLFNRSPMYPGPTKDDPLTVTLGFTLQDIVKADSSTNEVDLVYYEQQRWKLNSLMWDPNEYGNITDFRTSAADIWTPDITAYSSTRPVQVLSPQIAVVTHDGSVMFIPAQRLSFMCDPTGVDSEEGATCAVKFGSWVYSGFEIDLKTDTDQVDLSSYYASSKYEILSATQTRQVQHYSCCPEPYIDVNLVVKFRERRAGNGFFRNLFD

Compound | Kd [1] | Kd [2]
α-conotoxin LvIA (peptide) | 132 nM | 
CC[C@H](C)[C@@H]1NC(=O)[C@H](CCC(=O)O)NC(=O)[C@@H]2CCCN2C(=O)[C@H](Cc2cnc[nH]2)NC(=O)[C@H](CC(=O)O)NC(=O)[C@H](C(C)C)NC(=O)[C@H](C)NC(=O)[C@@H]2CSSC[C@H](NC(=O)CN)C(=O)N[C@@H](CSSC[C@@H](C(N)=O)NC1=O)C(=O)N[C@@H](CO)C(=O)N[C@@H](Cc1cnc[nH]1)C(=O)N1CCC[C@H]1C(=O)N[C@@H](C)C(=O)N2 [LvIA (N9A)] (H-GCCSHPACAVDHPEIC-NH2; disulfide 2-8, 3-16) |  | 82.8 nM
CC[C@H](C)[C@@H]1NC(=O)[C@H](CCC(=O)O)NC(=O)[C@@H]2CCCN2C(=O)[C@H](Cc2cnc[nH]2)NC(=O)[C@H](C)NC(=O)[C@H](C(C)C)NC(=O)[C@H](CC(N)=O)NC(=O)[C@@H]2CSSC[C@H](NC(=O)CN)C(=O)N[C@@H](CSSC[C@@H](C(N)=O)NC1=O)C(=O)N[C@@H](CO)C(=O)N[C@@H](Cc1cnc[nH]1)C(=O)N1CCC[C@H]1C(=O)N[C@@H](C)C(=O)N2 [LvIA (D11A)] (H-GCCSHPACNVAHPEIC-NH2; disulfide 2-8, 3-16) |  | 17.5 nM
CC[C@H](C)[C@@H]1NC(=O)[C@H](CCC(=O)O)NC(=O)[C@@H]2CCCN2C(=O)[C@H](Cc2cnc[nH]2)NC(=O)[C@H](CC(=O)O)NC(=O)[C@H](C(C)C)NC(=O)[C@H](CC(N)=O)NC(=O)[C@@H]2CSSC[C@H](NC(=O)CN)C(=O)N[C@@H](CSSC[C@@H](C(N)=O)NC1=O)C(=O)N[C@@H](CO)C(=O)N[C@@H](Cc1cnc[nH]1)C(=O)N1CCC[C@H]1C(=O)N[C@@H](C)C(=O)N2 [LvIA WT] |  | 132 nM
α-conotoxin LvIA (N9A) (peptide) | 82.8 nM | 
α-conotoxin LvIA (S4A) (peptide) | 23.8 nM | 
CC[C@H](C)[C@@H]1NC(=O)[C@H](CCC(=O)O)NC(=O)[C@@H]2CCCN2C(=O)[C@H](Cc2cnc[nH]2)NC(=O)[C@H](CC(=O)O)NC(=O)[C@H](C(C)C)NC(=O)[C@H](CC(N)=O)NC(=O)[C@@H]2CSSC[C@H](NC(=O)CN)C(=O)N[C@@H](CSSC[C@@H](C(N)=O)NC1=O)C(=O)N[C@@H](C)C(=O)N[C@@H](Cc1cnc[nH]1)C(=O)N1CCC[C@H]1C(=O)N[C@@H](C)C(=O)N2 [LvIA (S4A)] (H-GCCAHPACNVDHPEIC-NH2; disulfide 2-8, 3-16) |  | 23.8 nM
